Test results taken from the supplement of paper PMC12137928.
Counter-ions that a name gives are not always drawn.

System: HCT116
Conditions: 72 h
Procedure, shortened: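 HCT116 cells went into 1536-well plates at 250 per well. CellTiter-Glo luminescence was expressed relative to vehicle (0%) and positive control (-100%) and then pattern-corrected. Both IC50 and maximal efficacy were taken from four-parameter Hill fits.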

Structure (SMILES) | IC50 cell viability (ICRF193 0 nM) | IC50 cell viability (ICRF193 200 nM)
CCC(=O)O[C@]1(C(=O)COC)[C@@H](C)C[C@H]2[C@@H]3CCC4=CC(=O)C=C[C@]4(C)[C@@]3(F)[C@@H](O)C[C@@]21C [Amelometasone] | > 45.8 µM | > 45.8 µM
COc1cc(N)cn[n+]1-c1ccccc1 [Amezinium methylsulfate] | > 45.8 µM | > 45.8 µM
Nc1c(CC(=O)O)cccc1C(=O)c1ccccc1 [Amfenac Sodium] | > 45.8 µM | > 45.8 µM
COC(=O)c1cc(Cl)ccc1NS(=O)(=O)C(F)(F)F [Amidoflumet] | > 45.8 µM | > 45.8 µM
NCCCNCCSP(=O)(O)O [Amifostine] | > 45.8 µM | > 45.8 µM
NCC[C@H](O)C(=O)N[C@@H]1C[C@H](N)[C@@H](O[C@H]2O[C@H](CN)[C@@H](O)[C@H](O)[C@H]2O)[C@H](O)[C@H]1O[C@H]1O[C@H](CO)[C@@H](O)[C@H](N)[C@H]1O [Amikacin] | > 45.8 µM | > 45.8 µM
N=C(N)NC(=O)c1nc(Cl)c(N)nc1N [Amiloride] | > 45.8 µM | > 45.8 µM
COc1ccc(/C=C/C(=O)OCCC(C)C)cc1 [Amiloxate] | > 45.8 µM | > 45.8 µM
NCCCCCC(=O)O [Aminocaproic acid] | > 45.8 µM | > 45.8 µM
CCC1(c2ccc(N)cc2)CCC(=O)NC1=O (stereo unspecified) [Aminoglutethimide] | > 45.8 µM | > 45.8 µM
Nc1ccc(C(=O)NCC(=O)O)cc1 [Aminohippuric acid] | > 45.8 µM | > 45.8 µM
NCC(=O)CCC(=O)O [Aminolevulinic acid hydrochloride] | > 45.8 µM | > 45.8 µM
CC(CC(C(N)=O)(c1ccccc1)c1ccccc1)N(C)C (stereo unspecified) [Aminopentamide sulfate] | > 45.8 µM | > 45.8 µM
CCN1CCCC1CNC(=O)c1cc(S(=O)(=O)CC)c(N)cc1OC (stereo unspecified) [Amisulpride] | > 45.8 µM | > 45.8 µM
Cc1ccc(/N=C/N(C)/C=N/c2ccc(C)cc2C)c(C)c1 [Amitraz] | > 45.8 µM | > 45.8 µM
CC(C)c1ccc2oc3nc(N)c(C(=O)O)cc3c(=O)c2c1 [Amlexanox] | > 45.8 µM | > 45.8 µM
CC1(C)[C@@H](O[C@H]2O[C@H](C(=O)O)[C@@H](O)[C@H](O)[C@H]2O[C@@H]2O[C@H](C(=O)O)[C@@H](O)[C@H](O)[C@H]2O)CC[C@]2(C)[C@H]3C(=O)C=C4[C@@H]5C[C@@](C)(C(=O)O)CC[C@]5(C)CC[C@@]4(C)[C@]3(C)CC[C@@H]12 [Ammonium Glycyrrhizinate] | > 45.8 µM | > 45.8 µM
CCC(C)(C)OC(=O)N[C@@H](Cc1c[nH]c2ccccc12)C(=O)N[C@@H](CCSC)C(=O)N[C@@H](CC(=O)O)C(=O)N[C@@H](Cc1ccccc1)C(N)=O [Amogastrin] | > 45.8 µM | > 45.8 µM
CCC(C)(C)c1ccc(CC(C)CN2C[C@@H](C)O[C@@H](C)C2)cc1 (stereo partly specified) [Amorolfine hydrochloride] | > 45.8 µM | > 45.8 µM
Clc1ccc2c(c1)C(N1CCNCC1)=Nc1ccccc1O2 [Amoxapine] | > 45.8 µM | > 45.8 µM

Structure (SMILES) | IC50 cell viability (ICRF193 0 nM) | IC50 cell viability (ICRF193 200 nM)
CC1(C)S[C@@H]2[C@H](NC(=O)[C@H](N)c3ccc(O)cc3)C(=O)N2[C@H]1C(=O)O [Amoxicillin sodium] | > 45.8 µM | > 45.8 µM
C[C@@H]1[C@H](O)[C@@H](C)/C=C/C=C/C=C/C=C/C=C/C=C/C=C/[C@H](O[C@@H]2O[C@H](C)[C@@H](O)[C@H](N)[C@@H]2O)C[C@@H]2O[C@](O)(C[C@@H](O)C[C@@H](O)[C@H](O)CC[C@@H](O)C[C@@H](O)CC(=O)O[C@H]1C)C[C@H](O)[C@H]2C(=O)O [Amphotericin B] | > 45.8 µM | > 45.8 µM
CCOC(=O)OC(C)OC1=C(C(=O)Nc2ccccn2)N(C)S(=O)(=O)c2ccccc21 (stereo unspecified) [Ampiroxicam] | > 45.8 µM | > 45.8 µM
CC(C)CN(C[C@@H](O)[C@H](Cc1ccccc1)NC(=O)O[C@H]1CCOC1)S(=O)(=O)c1ccc(N)cc1 [Amprenavir] | > 45.8 µM | > 45.8 µM
CCCc1ncc(C[n+]2ccccc2C)c(N)n1 [Amprolium hydrochloride] | > 45.8 µM | > 45.8 µM
Nc1cc(-c2ccncc2)c[nH]c1=O [Amrinone] | > 45.8 µM | > 45.8 µM
CCCCCc1ccc(C)cc1O [Amylmetacresol] | > 45.8 µM | > 45.8 µM
C[N+]1(CC2COC(c3ccccc3)(c3ccccc3)O2)CCCCC1 (stereo unspecified) [Anacolin] | > 45.8 µM | > 45.8 µM
O=C1CN2Cc3c(ccc(Cl)c3Cl)N=C2N1 [Anagrelide hydrochloride] | > 45.8 µM | > 45.8 µM
CC(C)(C#N)c1cc(Cn2cncn2)cc(C(C)(C)C#N)c1 [Anastrozole] | > 45.8 µM | > 45.8 µM
C[C@]12CCC(=O)C[C@@H]1CC[C@@H]1[C@@H]2CC[C@]2(C)C=CC[C@@H]12 [Androstenone] | > 45.8 µM | > 45.8 µM
COc1ccc(-c2cc(=S)ss2)cc1 [Anethole trithione] | > 45.8 µM | > 45.8 µM
C/C=C/c1ccc(OC)cc1 [Anethole] | > 45.8 µM | > 45.8 µM
CCCCCOc1ccc(-c2ccc(-c3ccc(C(=O)N[C@H]4C[C@@H](O)[C@@H](O)NC(=O)[C@@H]5[C@@H](O)[C@@H](C)CN5C(=O)[C@H]([C@@H](C)O)NC(=O)[C@H]([C@H](O)[C@@H](O)c5ccc(O)cc5)NC(=O)[C@@H]5C[C@@H](O)CN5C(=O)[C@H]([C@@H](C)O)NC4=O)cc3)cc2)cc1 [Anidulafungin] | > 45.8 µM | > 45.8 µM
CCOC(=O)C1(c2ccccc2)CCN(CCc2ccc(N)cc2)CC1 [Anileridine] | > 45.8 µM | > 45.8 µM
COc1ccc(C(=O)N2CCCC2=O)cc1 [Aniracetam] | > 45.8 µM | > 45.8 µM
COc1ccc(C2C(=O)c3ccccc3C2=O)cc1 [Anisindione] | > 45.8 µM | > 45.8 µM
CCCC(CCC)C(=O)O[C@H]1C[C@H]2CC[C@@H](C1)[N+]2(C)C [Anisotropine methylbromide] | > 45.8 µM | > 45.8 µM
c1ccc(CN(CC2=NCCN2)c2ccccc2)cc1 [Antazoline hydrochloride] | > 45.8 µM | > 45.8 µM
O=C1c2c(O)cccc2Cc2cccc(O)c21 [Anthralin] | > 45.8 µM | > 45.8 µM

Structure (SMILES) | IC50 cell viability (ICRF193 0 nM) | IC50 cell viability (ICRF193 200 nM)
O=C1c2ccccc2C(=O)c2ccccc21 [Anthraquinone] | > 45.8 µM | > 45.8 µM
Cc1nnc2n1-c1sc(CCC(=O)N3CCOCC3)cc1C(c1ccccc1Cl)=NC2 [Apafant] | > 45.8 µM | > 45.8 µM
COc1ccc(-n2nc(C(N)=O)c3c2C(=O)N(c2ccc(N4CCCCC4=O)cc2)CC3)cc1 [Apixaban] | > 45.8 µM | > 45.8 µM
NNc1nncc2ccccc12 [Apresoline] | > 45.8 µM | > 45.8 µM
CCN(CC)CCCN(c1ccccc1)C1Cc2ccccc2C1 [Aprindine hydrochloride] | > 45.8 µM | > 45.8 µM
OC[C@H]1O[C@@H](Oc2ccc(O)cc2)[C@H](O)[C@@H](O)[C@@H]1O [Arbutin] | > 45.8 µM | > 45.8 µM
CC1CNc2c(cccc2S(=O)(=O)N[C@@H](CCCNC(=N)N)C(=O)N2CC[C@@H](C)C[C@@H]2C(=O)O)C1 (stereo partly specified) [Argatroban] | > 45.8 µM | > 45.8 µM
CC(C)(C)NCC(O)CSc1nc(-c2ccc(C(N)=O)s2)cs1 (stereo unspecified) [Arotinolol hydrochloride] | > 45.8 µM | > 45.8 µM
CO[C@H]1O[C@@H]2O[C@@]3(C)CC[C@H]4[C@H](C)CC[C@@H]([C@H]1C)[C@@]24OO3 [Artemether] | > 45.8 µM | > 45.8 µM
CCCNC(C)C(=O)Nc1c(C)csc1C(=O)OC (stereo unspecified) [Articaine hydrochloride] | > 45.8 µM | > 45.8 µM
CN1CC2c3ccccc3Oc3ccc(Cl)cc3C2C1 (stereo unspecified) [Asenapine] | > 45.8 µM | > 45.8 µM
CC(=O)Oc1ccccc1C(=O)O [Aspirin] | > 45.8 µM | > 45.8 µM
CNC(=O)C[C@@H](N)C(=O)N[C@@H](C(=O)N[C@@H]1C(=O)N2[C@@H]1SC(C)(C)[C@@H]2C(=O)O)c1ccc(O)cc1 [Aspoxicillin] | > 45.8 µM | > 45.8 µM
CO[C@H]1[C@@H](O)[C@H](N)[C@@H](O[C@H]2O[C@H]([C@H](C)N)CC[C@H]2N)[C@H](O)[C@@H]1N(C)C(=O)CN [Astromicin] | > 45.8 µM | > 45.8 µM
COC(=O)N[C@H](C(=O)N[C@@H](Cc1ccccc1)[C@@H](O)CN(Cc1ccc(-c2ccccn2)cc1)NC(=O)[C@@H](NC(=O)OC)C(C)(C)C)C(C)(C)C [Atazanavir] | > 45.8 µM | > 45.8 µM
CCOc1ccc(C[C@H]2NC(=O)CCSSC[C@@H](C(=O)N3CCC[C@H]3C(=O)N[C@@H](CCCN)C(=O)NCC(N)=O)NC(=O)[C@H](CC(N)=O)NC(=O)[C@H]([C@@H](C)O)NC(=O)[C@H]([C@@H](C)CC)NC2=O)cc1 [Atosiban] | > 45.8 µM | > 45.8 µM
COc1ccc(CC2c3cc(OC)c(OC)cc3CC[N+]2(C)CCC(=O)OCCCCCOC(=O)CC[N+]2(C)CCc3cc(OC)c(OC)cc3C2Cc2ccc(OC)c(OC)c2)cc1OC (stereo unspecified) [Atracurium besylate] | > 45.8 µM | > 45.8 µM
COc1ccc([C@@H]2CC(=O)c3c(O)cc(O[C@@H]4O[C@H](CO[C@@H]5O[C@@H](C)[C@H](O)[C@@H](O)[C@H]5O)[C@@H](O)[C@H](O)[C@H]4O)cc3O2)cc1O [Aurantiamarin (Methyl Hesperidin)] | > 45.8 µM | > 45.8 µM
